Laboratory results published in publication PMC9837764 (Nature Communications, 2023).
Several values for one entry are separate records, joined by “and”; a condition that tells them apart may be missing. Equal entries are not always repeated.

Legend:
[1] = human, in vivo; cited from earlier work
[2] = tested on: SARS-CoV-2; assay: Combination of RdRp inhibitors with SARS-CoV-2 nsp14 inhibitors in infected Calu-3 cells, synergy; assay type: cell-based; design: EC99 mean: unit not given here; conditions: for Response (Fig3C source data for synergy analysis): MB-905 0 nM; for EC50: Severe acute respiratory syndrome coronavirus 2, Calu-3, read-out: EC50 mean
[3] = tested on: Human primary monocytes; assay: Monocyte viability (LDH in supernatant); assay type: cell-based; conditions: 10 µM
Description: Cellular Viability (%) Remdesivir
Supplementary Fig. 3. Citotoxicity of the compounds.
DMEM containing 2% fetal bovine serum.
Monocytes at a density of 1.5

[4] = in vitro; conditions: human
Method: Monolayers of 1.5 × 10^4 cells in 96-well plates were treated for 3 days with various concentrations (semilog dilutions from 1000 to 10 µM) of the antiviral drugs. Then, 5 mg/ml 2,3-bis-(2-methoxy-4-nitro-5-sulfophenyl)−2H-tetrazolium-5-carboxanilide (XTT) in DMEM was added to the cells in the presence of 0.01% N-methyl dibenzopyrazine methyl sulfate (PMS).

[5] = tested on: Calu-3 cells; conditions: human
[6] = tested on: SARS-CoV-2; assay: Cell-associated virus RNA in SARS-CoV-2-infected human primary monocytes; assay type: cell-based; conditions: for Cell-associated virus RNA levels in SARS-CoV-2-infected monocytes: Fig. 1c; for Cell-associated virus RNA loads, inhibition (Fig1C source data, per donor): monocytes
Method: (§1) Human primary monocytes were obtained after 3 h of plastic adherence of peripheral blood mononuclear cells (PBMCs). The use of primary human cell was approved by Institutional Review Board from the Oswaldo Cruz Foundation under protocol 49971421.8.0000.5248 with signed informed consent in accordance with the Hemotherapy Service of Hospital Clementino Fraga from the Federal University of Rio de Janeiro. All volunteers were de-identified. PBMCs were isolated from healthy donors by density gradient centrifugation (Ficoll-Paque, GE Healthcare). PBMCs (2.0 × 10^6 cells) were plated onto 48-well plates (NalgeNunc) in RPMI-1640 without serum for 2–4 h. Nonadherent cells were removed, and the remaining monocytes were maintained in DMEM with 5% human serum (HS; Millipore) and penicillin/streptomycin. The purity of human monocytes was above 95%, as determined by flow cytometric analysis (FACScan; Becton Dickinson) using anti-CD3 (BD Biosciences, cat # 555342, 1:40), anti-CD16 (Southern Biotech, cat # 561313, 1:20) and APC mouse IgG2a isotype (BD Biosciences, cat # 550882, 1/40) and PE mouse IgG1 isotype (BD Biosciences, 555749, 1/20).
Total viral RNA from a culture supernatant and/or monolayers was extracted using QIAamp Viral RNA (Qiagen®) according to the manufacturer’s instructions. Quantitative RT‒PCR was performed using GoTaq® Probe qPCR and RT-qPCR Systems (Promega) in a StepOne™ Real-Time PCR System (Thermo Fisher Scientific) ABI PRISM 7500 Sequence Detection System (Applied Biosystems). Amplifications were carried out in 25 µL reaction mixtures containing 2× reaction mix buffer, […] of each primer, 10 µM of probe, and 5 µL of RNA template. Primers, probes, and cycling conditions recommended by the Centers for Disease Control and Prevention (CDC) protocol were used to detect SARS-CoV-2[52]. The standard curve method was employed for virus quantification. For reference to the cell amounts used, the housekeeping gene RNAse P (F-5′-[…] -3′, R-5′[…] -3′, P-5′-FAM-[…] -BHQ-1-3′) was amplified. The Ct values for this target were compared to those obtained for different cell amounts, 10^7 to 10^2, for calibration.

[7] = tested on: SARS-CoV-2; assay: Yield-reduction assay, SARS-CoV-2 in Calu-3 cells (titers as PFU/mL in Vero cells); conditions: for Inhibition of SARS-CoV-2 infectious titers (Fig1A source data, replicates): one treatment; for Inhibition of SARS-CoV-2 infectious titers (Fig1B source data, replicates): additional treatment at 24 h
[8] = tested on: mouse bone marrow erythrocytes; conditions: Positive Control 25 mg/Kg i.p.
[9] = tested on: SARS-CoV-2; assay: Genomic and subgenomic viral RNA in infected Calu-3 cells (RT-PCR); assay type: cell-based; conditions: Calu-3, 10 µM, 48 h
[10] = tested on: IL-6; assay: IL-6 in supernatant of SARS-CoV-2-infected human primary monocytes; assay type: cell-based; conditions: infected monocytes, drugs at 10 µM, 24 h
Method: as §1

[11] = tested on: TNF-α; assay: TNF-α in supernatant of SARS-CoV-2-infected human primary monocytes; assay type: cell-based; conditions: infected monocytes, drugs at 10 µM, 24 h
Method: as §1

[12] = Severe acute respiratory syndrome coronavirus 2, Calu-3
[13] = Severe acute respiratory syndrome coronavirus 2, Calu-3, 24 h
[14] = Drug 0.001, Calu-3, MOI 0.1, 48 h
[15] = infected Calu-3, compound alone at 10 uM

| SMILES | EC50 [2] [µM] | CC50 [4] [µM] | CC50 [5] [µM] | Cell-associated virus RNA levels in SARS-CoV-2-infected monocytes [6] | Cell-associated virus RNA loads, inhibition (Fig1C source data, per donor) ([6]; 24 h, Drug 1) | Cell-associated virus RNA loads, inhibition (Fig1C source data, per donor) ([6]; 24 h, Drug 10) | Cell-associated virus RNA loads, inhibition (Fig1C source data, per donor) ([6]; MOI 0.1, 24 h, Drug 0.1) | EC50 [7, 12] [nM] | EC50 [7, 13] [nM] | Inhibition of SARS-CoV-2 infectious titers (Fig1A source data, replicates) [7, 14] | Inhibition of SARS-CoV-2 infectious titers (Fig1A source data, replicates) ([7]; Drug 0.01) | Inhibition of SARS-CoV-2 infectious titers (Fig1A source data, replicates) ([7]; Drug 0.1) | Inhibition of SARS-CoV-2 infectious titers (Fig1A source data, replicates) ([7]; Drug 1) | Inhibition of SARS-CoV-2 infectious titers (Fig1A source data, replicates) ([7]; Drug 10) | further results |
| --- | --- | --- | --- | --- | --- | --- | --- | --- | --- | --- | --- | --- | --- | --- | --- |
| C[C@@H]1CCO[C@H]2Cn3cc(C(=O)NCc4ccc(F)cc4F)c(=O)c(O)c3C(=O)N12 [DTG, dolutegravir] | 5.3 | – | – | – | – | – | – | – | – | – | – | – | – | – | Cmax [1]: 15 µM; Plasma concentration at Cmin [1]: 1.5 µM; Response (Fig3C source data for synergy analysis) ([2]; DTG 1000 nM): 14; Response (Fig3C source data for synergy analysis) ([2]; DTG 5000 nM): 53; Response (Fig3C source data for synergy analysis) ([2]; DTG 10000 nM): 74; Response (Fig3C source data for synergy analysis) ([2]; DTG 15000 nM): 75; Effects on SARS-CoV-2 replication ([2]; alone at 5 µM, Calu-3): marginal effects; Virus productive titers (Fig3B source data, replicates) ([2]; infected Calu-3, DTG alone at 5uM): 224000 and 448000 |
| CC(C)C(=O)OC[C@H]1O[C@@H](n2ccc(NO)nc2=O)[C@H](O)[C@@H]1O [MK-4482, molnupiravir, reference compound] | 0.8 | 58 ± 18 | 53 ± 12 | relatively low activity | 25 (2×) and 23 | 1 | 12 (2×) and 18 | 720 ± 120 | 20 ± 8 | 3 and 4 and 5 | 13 and 6 and 16 | 48 and 30 and 35 | 71 and 60 and 50 | 100 and 99 and 95 | Monocyte viability [3]: drastically reduced; EC99 mean ([2]; Calu-3 cells, alone or with nsp14 inhibitor at the concentration of the label, unit not given): 9; EC90 ([2]; Severe acute respiratory syndrome coronavirus 2, Calu-3, read-out: EC90 mean): 7 µM |
| O=P1(N(CCCl)CCCl)NCCCO1 (stereo not shown) [Cyclophosphamide, reference compound] | – | – | – | – | – | – | – | – | – | – | – | – | – | – | MNPCE/4,000 PCE (Mean ± S.D.) [8]: 16.20 ± 6.03; Ratio PCE/NCE (Mean ± S.D.) [8]: 1.44 ± 0.29 |
| OC[C@H]1O[C@@H](n2cnc3c(NCc4ccco4)ncnc32)[C@H](O)[C@@H]1O [MB-801, Kinetin riboside] | – | 550 ± 32 | 530 ± 65 | reduced cell-associated virus RNA levels in a concentration-dependent manner | 36 and 65 and 10 and 20 and 30 and 40 | 33 and 76 and 10 and 20 and 30 and 36 | 17 and 66 and 24 and 12 and 9 and 25 | 180 ± 20 | 20 ± 3 | 2 and 4 and 5 | 27 and 20 and 32 | 40 and 53 and 50 | 63 and 67 and 57 | 95 and 94 and 72 | Genomic viral RNA (Fig2B source data, replicates) [9]: 0.3 and 0.1 and 0.22; Subgenomic viral RNA (Fig2B source data, replicates) [9]: 0.5 and 0.45 and 0.56; IL-6 levels in the culture supernatant (Fig1E source data, per donor) [10]: 2.2 and 1.8 and 0.121 and 4.3 and 3.4 and 0.355 and 1.5 and 2.9; Inhibition of SARS-CoV-2 infectious titers (Fig1B source data, replicates) ([7]; Drug 0.001, Calu-3, 48 h): 18 and 20 and 16; Inhibition of SARS-CoV-2 infectious titers (Fig1B source data, replicates) ([7]; Drug 0.01): 39 and 40 and 54; Inhibition of SARS-CoV-2 infectious titers (Fig1B source data, replicates) ([7]; Drug 0.1): 62 and 60 and 58; Inhibition of SARS-CoV-2 infectious titers (Fig1B source data, replicates) ([7]; Drug 1): 81 and 86 and 58; Inhibition of SARS-CoV-2 infectious titers (Fig1B source data, replicates) ([7]; Drug 10): 98 (2×) and 99; TNF-α levels in the culture supernatant (Fig1D source data, per donor) [11]: 1.6 and 1.8 and 0.638 and 4.1 and 2.6; Virus productive titers (Fig3A source data, replicates) [2, 15]: 32000 and 36000 and 38000; Virus productive titers (Fig3B source data, replicates) [2, 15]: 32000 and 36000 and 38000 |
